# Reference: publication PMC7997578, “Design, Synthesis, Dynamic Docking, Biochemical Characterization, and in Vivo Pharmacokinetics Studies of Novel Topoisomerase II Poisons with Promising Antiproliferative Activity” (Journal of Medicinal Chemistry, 2020)
# How the values were obtained:
# [1] = aqueous thermodynamic solubility; assay type: physicochemical; settings: PBS pH 7.4, 24 h, 25°C
# Experimental: (§1) 3. Aqueous t herm odynam ic solu bili ty
# (§2) The thermodynamic solubility of 3f was determined by addition of Phosphate Buffered Saline (PBS) at pH 7. 4 to an exces s of solid compound.
# (§3) The assay was performed by incubation of an aliquot of 2. 5mg of test compound in 500µL of PBS at pH 7. 4. The suspension was shaken at 300 RPM for 24h at 25°C. At the end of the incubation period, the saturated solution was filtered and analyzed by UPLC/MS for the quantification of dissolved compound (in µM) by UV at a specific wavelength ( λmax of the test compound). The analyses were performed on a Waters ACQUITY UPLC/MS SQD system equipped with an ESI ion source. The analyses were run on an ACQUITY UPLC BEH C 18 column (50x2. 1mmI D, particle size 1. 7µm) with a VanGuard BEH C 18 pr e-column (5x2. 1mmID, particle size 1. 7µm), using H 2O + 0. 1% HCOOH (A) and CH 3CN + 0. 1% HCOOH (B) as mobile phase.
# (§4) 4. Plasm a Protei n Bindi ng
# (§5) The assay was conducted in triplicate in human and mouse plasma. An appropriate volume of plasma was spiked with a known amount of 10mM DMSO stock solution of the test compound, thus reaching the incubation concentrations of 0. 5, 1 and 5 µM. […] At this point, the supernatants were ready for injections in the UPLC -MS/ MS system. […] Plasma protein binding was calculated applying appropriate corrections to compensate for dilutions during sampling.
# [2] = target: T1, topoII/DNA cleavage complex (Homo sapiens, UniProt P11388); assay: topoisomerase II cleavage complex assay; assay type: biochemical
# T1 construct: purchased Inspiralis
# Experimental: Figure 2 Poison activity of the hybrid compounds. Agarose gel electrophoresis of plasmid DNA incubated in the absence (no enzyme) or presence of 1 U of topoII containing either 1% DMSO as control vehicle (no enzyme and topoII lanes) or 200 μM compound. Labels are shown above each lane. Numbers at the bottom correspond to the normalized intensity of the linear form (FIII). Plasmid forms are indicated by the arrow-points on the right: supercoiled (FI), nicked (FII), and linear (FIII).
# Poison activity of the compounds was evaluated using a cleavage complex assay (Inspiralis) as described previously.[60] Compounds were tested at a fixed concentration of 200 μM in the presence of 1 U of topoisomerase II and 500 ng of […] plasmid at 37 °C for 6 min. Final DMSO concentration in the assay was 1%. Reaction products were subjected to electrophoresis in a 1% agarose gel, stained with SYBR Safe DNA stain, and DNA bands were visualized and quantified as described above.
# [3] = plasma protein binding (rapid equilibrium dialysis), human; assay type: in vitro ADME; settings: pH 7.4
# Experimental: as §1, §2, §3, §4, §5
# T1 sequence (P11388 whole entry, one chain of several): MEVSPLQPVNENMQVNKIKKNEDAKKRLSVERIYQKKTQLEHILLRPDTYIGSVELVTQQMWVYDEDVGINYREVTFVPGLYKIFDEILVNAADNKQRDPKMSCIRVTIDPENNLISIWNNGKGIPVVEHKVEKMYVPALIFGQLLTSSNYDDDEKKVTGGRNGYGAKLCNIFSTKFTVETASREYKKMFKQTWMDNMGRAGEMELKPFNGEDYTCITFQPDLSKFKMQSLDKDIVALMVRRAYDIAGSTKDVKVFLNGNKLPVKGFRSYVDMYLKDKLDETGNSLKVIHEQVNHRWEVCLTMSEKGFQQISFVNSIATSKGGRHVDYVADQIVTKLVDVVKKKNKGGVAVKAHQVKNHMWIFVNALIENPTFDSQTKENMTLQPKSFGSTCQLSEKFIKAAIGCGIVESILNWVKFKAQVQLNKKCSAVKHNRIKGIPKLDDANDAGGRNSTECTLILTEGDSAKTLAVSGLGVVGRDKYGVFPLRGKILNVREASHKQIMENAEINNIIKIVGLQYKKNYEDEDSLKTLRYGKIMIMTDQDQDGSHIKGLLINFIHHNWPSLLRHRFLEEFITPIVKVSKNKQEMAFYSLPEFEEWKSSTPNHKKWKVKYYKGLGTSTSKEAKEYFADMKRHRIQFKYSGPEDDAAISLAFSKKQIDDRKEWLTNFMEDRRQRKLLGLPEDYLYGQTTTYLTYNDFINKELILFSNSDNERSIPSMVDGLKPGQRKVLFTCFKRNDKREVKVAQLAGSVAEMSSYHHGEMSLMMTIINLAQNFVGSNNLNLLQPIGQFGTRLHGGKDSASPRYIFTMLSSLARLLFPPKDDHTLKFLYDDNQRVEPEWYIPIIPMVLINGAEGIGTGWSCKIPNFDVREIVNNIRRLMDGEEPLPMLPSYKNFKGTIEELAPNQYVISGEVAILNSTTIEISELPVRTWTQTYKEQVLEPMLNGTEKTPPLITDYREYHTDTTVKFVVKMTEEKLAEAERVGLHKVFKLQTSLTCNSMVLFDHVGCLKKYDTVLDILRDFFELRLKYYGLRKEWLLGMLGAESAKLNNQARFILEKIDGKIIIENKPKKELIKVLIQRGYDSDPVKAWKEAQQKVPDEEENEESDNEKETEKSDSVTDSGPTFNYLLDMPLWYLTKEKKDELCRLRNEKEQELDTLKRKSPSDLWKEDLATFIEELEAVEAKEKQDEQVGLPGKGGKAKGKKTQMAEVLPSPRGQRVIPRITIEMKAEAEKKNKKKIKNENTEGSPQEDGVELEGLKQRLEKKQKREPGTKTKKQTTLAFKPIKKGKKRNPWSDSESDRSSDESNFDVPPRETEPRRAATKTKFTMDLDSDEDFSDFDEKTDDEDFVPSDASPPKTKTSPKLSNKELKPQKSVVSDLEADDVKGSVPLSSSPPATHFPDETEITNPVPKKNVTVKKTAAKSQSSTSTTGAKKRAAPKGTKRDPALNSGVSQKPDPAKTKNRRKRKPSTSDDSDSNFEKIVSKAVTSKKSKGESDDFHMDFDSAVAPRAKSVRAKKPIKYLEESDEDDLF
compound,measurement,setting,value
"O=C(Nc1cccc(OC(F)(F)F)c1)c1c(O)n(-c2ccccc2)c(=S)n(-c2ccccc2)c1=O [3f, 6-Hydroxy-4-oxo-1,3-diphenyl-2-thioxo-N-(3-(trifluoromethoxy)phenyl)-1,2,3,4-tetrahydropyrimidine-5-carboxamide]",solubility thermodynamic at 24 h,[1],30 µM
same,mode of action in cleavage complex formation assay,"[2]; 200 μM compound, 1 U topoII, plasmid DNA",confirmed to be poisons
same,"poison efficacy, fold better than ARN16267","[2]; 200 μM concentration, linear form (FIII) intensity",about 1.5 fold
same,fraction unbound at 3 h,[3],< 0.01
